The values that follow come from patent publication US11597701B2, “Integrin ligands and uses thereof” (Arrowhead Pharmaceuticals, Inc., priority 2017, dated 2023).

The target in this assay is αvβ6 integrin (Homo sapiens, UniProt P06756+P18564). Nature of the assay: IC50 binding activity (Examples 3 and 12). Particulars: Example 12, Table 17; azide-functionalized structures (2b, 6.1b, 7b, 23b) examined. An excerpt:
As reported in the following Table 1, IC50 binding data was obtained for the αvβ6 integrin ligands of Structures 1 and 2:
Azide-functionalized structures (i.e., Structures 1b and 2b) were examined for IC50 under conditions typically used and known in the art.
As reported in the following Table 17, additional IC50 binding data was obtained for the αvβ6 integrin ligands of Structures 2, 6.1, 7, and 23 used in certain Examples herein: […]

αvβ6 integrin, sequence (P06756 31-1048): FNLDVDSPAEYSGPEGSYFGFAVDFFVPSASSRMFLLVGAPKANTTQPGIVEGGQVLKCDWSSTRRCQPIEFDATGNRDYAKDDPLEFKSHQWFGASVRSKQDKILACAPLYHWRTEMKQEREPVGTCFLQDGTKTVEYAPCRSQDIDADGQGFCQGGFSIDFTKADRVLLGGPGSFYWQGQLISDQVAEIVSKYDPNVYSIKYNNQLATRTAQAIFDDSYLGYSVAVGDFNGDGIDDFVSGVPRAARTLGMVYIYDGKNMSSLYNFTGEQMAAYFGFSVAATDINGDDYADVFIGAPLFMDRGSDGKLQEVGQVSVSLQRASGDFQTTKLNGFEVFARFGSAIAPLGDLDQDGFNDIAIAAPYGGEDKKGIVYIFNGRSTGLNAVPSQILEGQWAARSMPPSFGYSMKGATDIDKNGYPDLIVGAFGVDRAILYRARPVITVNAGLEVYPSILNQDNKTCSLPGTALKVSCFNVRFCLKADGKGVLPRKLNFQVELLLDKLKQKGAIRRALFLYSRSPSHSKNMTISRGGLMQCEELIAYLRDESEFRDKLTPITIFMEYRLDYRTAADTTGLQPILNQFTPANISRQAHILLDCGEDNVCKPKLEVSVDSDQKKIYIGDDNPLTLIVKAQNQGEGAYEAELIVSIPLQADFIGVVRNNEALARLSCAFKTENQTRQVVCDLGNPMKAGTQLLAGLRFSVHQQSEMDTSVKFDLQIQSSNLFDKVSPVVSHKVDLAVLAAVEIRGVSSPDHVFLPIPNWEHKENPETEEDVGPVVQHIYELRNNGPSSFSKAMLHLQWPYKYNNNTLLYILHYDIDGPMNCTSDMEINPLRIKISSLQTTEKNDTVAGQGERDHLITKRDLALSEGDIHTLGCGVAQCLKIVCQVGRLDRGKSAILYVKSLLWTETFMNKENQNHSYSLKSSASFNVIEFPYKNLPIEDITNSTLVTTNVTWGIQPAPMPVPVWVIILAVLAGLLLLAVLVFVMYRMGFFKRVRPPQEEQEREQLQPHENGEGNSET
αvβ6 integrin, sequence (P18564 22-788): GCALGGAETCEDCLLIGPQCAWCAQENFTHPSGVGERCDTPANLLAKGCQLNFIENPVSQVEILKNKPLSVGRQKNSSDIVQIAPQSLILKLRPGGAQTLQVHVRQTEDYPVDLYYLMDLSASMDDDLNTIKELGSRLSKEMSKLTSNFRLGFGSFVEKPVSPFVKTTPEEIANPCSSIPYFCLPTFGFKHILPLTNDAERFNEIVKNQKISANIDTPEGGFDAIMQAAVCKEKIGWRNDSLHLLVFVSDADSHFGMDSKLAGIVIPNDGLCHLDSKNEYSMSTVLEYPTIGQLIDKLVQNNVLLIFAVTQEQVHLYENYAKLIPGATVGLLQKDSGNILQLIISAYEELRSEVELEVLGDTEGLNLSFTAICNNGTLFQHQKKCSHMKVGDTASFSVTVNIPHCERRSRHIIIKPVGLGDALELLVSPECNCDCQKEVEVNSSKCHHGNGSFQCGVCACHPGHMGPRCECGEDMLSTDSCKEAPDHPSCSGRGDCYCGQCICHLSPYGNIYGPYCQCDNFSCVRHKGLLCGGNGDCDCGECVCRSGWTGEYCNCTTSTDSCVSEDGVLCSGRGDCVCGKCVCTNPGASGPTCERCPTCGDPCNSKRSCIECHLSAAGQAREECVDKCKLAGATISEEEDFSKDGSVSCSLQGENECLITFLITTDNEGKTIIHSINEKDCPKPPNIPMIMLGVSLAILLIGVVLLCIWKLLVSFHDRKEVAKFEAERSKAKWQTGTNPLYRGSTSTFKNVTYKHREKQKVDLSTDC

Consider `Cc1ccnc(NCCCC(=O)NCC(=O)N[C@@H](CC(=O)O)c2ccc(-c3ccc(OCCOCCOCCOCCOCCN=[N+]=[N-])c4ccccc34)cc2)c1` [Structure 6.1], for which the IC50 (commonly the concentration at which inhibition is half-maximal) stood at 1.6 nM.
